Data taken from patent US7862815B2, “Methods for inhibiting angiogenesis with inhibitors of proadrenomedullin N-terminal 20 peptide (PAMP)” (The United States of America as represented by the …, priority 2002, dated 2011).

How the values were obtained:
[1] = tested on: athymic nude mice; test: DIVAA with angioreactors, Example 2 (peptides in matrigel); assay type: in vivo
Protocol: (§1) Analysis and quantitation of angiogenesis was done using DIVAA as previously described (Martinez et al., J. Natl. Cancer Inst., 21; 94(16):1226-37, 2002; Guedez et al., Am. J. Pathol. 162, 1431-1439, 2003). Briefly, 10 mm long surgical-grade silicone tubes with only one end open (angioreactors) were filled with 20 μl of matrigel alone or mixed with AM, bFGF, VEGF, PAMP, and/or PAMP(12-20) at the indicated concentrations. Human lung cancer cell lines (see below) were also premixed with matrigel alone or in combination with PAMP(12-20) at 10,000 cells per angioreactor. After the matrigel solidified, the angioreactors were implanted into the dorsal flanks of anesthetized athymic nude mice (NCI colony). After eleven days, the mice were injected intravenously with 25 mg/ml FITC-dextran (100 μl/mouse, Sigma) 20 minutes before removing the angioreactors. Photographs of the implants were taken for visual examination of angiogenic response. Quantitation of neovascularization in the angioreactors was determined as the amount of fluorescence trapped in the implants and was measured in a HP Spectrophotometer (Perkin Elmer).
To further characterize this observation, an […] assay was employed that allows for more precise quantitation of angiogenic properties: the directed […] angiogenesis assay or DIVAA (Martinez et al., J. Natl. Cancer Inst., 21; 94(16): 1226-37, 2002; Guédez et al., Am. J. Pathol. 162, 1431-1439, 2003). The assay involves implanting small silicone capsules carrying the test substances under the skin of nude mice. After eleven days, the mice are injected with a specific amount of FITC-dextran, and the volume of blood circulating through the implant is quantified by measuring the fluorescence in the capsule. In addition, the new blood vessels growing into the silicone tube can be seen directly by transparency (FIG. 4A-F). […] The extent of the angiogenic response can be seen clearly when this response is compared with the negative control (FIG. 4A). The angiogenic response elicited by PAMP was dose-dependent (FIG. 4C-G). When compared to AM and VEGF responses at equimolar concentrations, a clear difference was observed.

[2] = tested on: A549; test: DIVAA, angiogenesis induced by tumor cells embedded in matrigel; assay type: in vivo, human; conditions: A549, 10,000 cells per angioreactor, 100 nM PAMP(12-20)
Protocol: as §1
(§2) The human cancer cell lines used, A549 and H1299, were obtained from the American Tissue Culture Collection (ATCC) and fed with RPMI164O containing 10% fetal bovine serum (Invitrogen). […]

[3] = tested on: H1299; test: as above; assay type: in vivo, human; conditions: H1299, 10,000 cells per angioreactor, 100 nM PAMP(12-20)
Protocol: as §1, §2

[4] = tested on: Human dermal microvascular endothelial cells; test: Calcium measurements (ATP-induced calcium flux); assay type: cell-based; conditions: 100 nM PAMP(12-20) with 10 nM PAMP and 1 mM ATP
Protocol: Human dermal microvascular endothelial cells were obtained from Cell Applications, Inc. and cultured in 96-well plates at 1.0×10^5 cells per well. The cells were loaded for 60 minutes at room temperature with the fluorescent dye FLIPR (Molecular Devices) and then transferred to the FlexStation II (Molecular Devices) for analysis. The test compounds were prepared in another plate at a concentration of 5× and were added to the proper wells by the robotic arm of the FlexStation II. Fluorescence was measured every five seconds in each well and recorded. One mM ATP (Sigma) was used as a calcium agonist (Lau et al., Life Sci. 73, 20 19-2028, 2003).

[5] = tested on: A549 tumors; test: Xenograft experiment; assay type: in vivo, athymic nude mice
Protocol: Twenty female athymic nude mice from the NIH colony in Frederick (MD) were injected subcutaneously with 1.0×10^7 A549 cells/mouse. Two weeks later, all the mice had developed palpable tumors under the skin and at this time they were divided in two groups. Three times a week, each individual tumor was measured (length, height, thickness) and every mouse received an intratumoral injection, according to their group. Group 1 (control) received 100 μl PBS. […] When the tumor burden became unbearable, the mice were sacrificed.

**Q.** Which “inhibition of the angiogenic response elicited by PAMP” value ([1]; 1 nM PAMP with 100 nM PAMP(12-20) (hundred-fold excess)) does the source give for “proadrenomedullin N-terminal 20 peptide (12-20) (KWNKWALSR; listed as Homo sapiens) [PAMP(12-20), peptide which comprises only amino acids 12-20 of PAMP]” here?
**A.** Its value is “inhibited angiogenesis to the basal levels”.

**Q.** And the “inhibition of the angiogenic response elicited by PAMP” value ([1]; 1 nM full-length PAMP with increasing doses of PAMP(12-20))?
**A.** Its value is “dose-dependent inhibition”.

**Q.** What about the “effect on basal angiogenesis” value ([1]; PAMP(12-20) by itself) of the same substance?
**A.** Its value is “did not modify basal angiogenesis”.

**Q.** What about the “inhibition of tumor cell-induced angiogenic response” value [2] of the same substance?
**A.** The value was “completely blocked”.

**Q.** What about the “inhibition of tumor cell-induced angiogenic response” value [3] of the same substance?
**A.** Its value is “completely blocked”.

**Q.** What about the “reversal of PAMP block of ATP-induced calcium response” value [4] of the same substance?
**A.** The value was “initial response was recovered”.

**Q.** What about the “treatment time after which statistical differences in tumor size were observed” value ([5]; 1 mM PAMP(12-20) versus PBS, ten mice per group) of the same substance?
**A.** Its value is “nine”.

**Q.** And the “tumor growth versus PBS control” value ([5]; 1 mM PAMP(12-20), 100 μl intratumoral injection three times a week)?
**A.** Its value is “slower rate of tumor growth”.
